Data from the NIST ThermoML archive (doi:10.1016/j.jct.2006.01.012).
± gives the expanded uncertainty stated by the source.

Experiment: xn = mol fraction of the nth substance listed
Details: Liquid; for viscosity: Capillary tube (Ostwald / Ubbelohde) method; for mass density: isochoric method

CCCCCCCC [octane] + CCCCCCC
Details | mass density [kg/m3] | viscosity [mPa·s]
373.19 K, 5000 kPa, x2 = 0.7906 | – | 0.217 ± 0.007
373.19 K, 10000 kPa, x2 = 0.7906 | – | 0.23 ± 0.008
373.51 K, 5000 kPa, x2 = 0.2808 | – | 0.241 ± 0.008
373.51 K, 10000 kPa, x2 = 0.2808 | – | 0.255 ± 0.008
373.97 K, 5000 kPa, x2 = 0.5427 | – | 0.227 ± 0.008
373.97 K, 10000 kPa, x2 = 0.5427 | – | 0.24 ± 0.008
374.79 K, 3256 kPa, x2 = 0.2808 | 634.7 ± 0.8 | –
374.79 K, 8081 kPa, x2 = 0.2808 | 641.5 ± 0.8 | –
374.79 K, 9316 kPa, x2 = 0.2808 | 643.1 ± 0.8 | –
380.43 K, 3110 kPa, x2 = 0.5427 | 623.5 ± 0.8 | –
380.43 K, 5712 kPa, x2 = 0.5427 | 628.4 ± 0.8 | –
380.43 K, 8743 kPa, x2 = 0.5427 | 633.1 ± 0.8 | –
380.43 K, 10230 kPa, x2 = 0.5427 | 635.1 ± 0.8 | –
382.99 K, 5000 kPa, x2 = 0.2808 | – | 0.223 ± 0.007
382.99 K, 10000 kPa, x2 = 0.2808 | – | 0.237 ± 0.008
383.18 K, 5000 kPa, x2 = 0.5427 | – | 0.212 ± 0.007
383.18 K, 10000 kPa, x2 = 0.5427 | – | 0.224 ± 0.007
384.55 K, 5000 kPa, x2 = 0.7906 | – | 0.198 ± 0.007
384.55 K, 10000 kPa, x2 = 0.7906 | – | 0.211 ± 0.007
386.91 K, 3743 kPa, x2 = 0.7906 | 612.4 ± 0.7 | –
386.91 K, 5902 kPa, x2 = 0.7906 | 616.6 ± 0.8 | –
386.91 K, 8793 kPa, x2 = 0.7906 | 621.6 ± 0.8 | –
386.91 K, 10710 kPa, x2 = 0.7906 | 624.7 ± 0.8 | –
393.49 K, 5000 kPa, x2 = 0.2808 | – | 0.206 ± 0.007
393.49 K, 10000 kPa, x2 = 0.2808 | – | 0.22 ± 0.007
394.51 K, 5000 kPa, x2 = 0.5427 | – | 0.195 ± 0.006
394.51 K, 10000 kPa, x2 = 0.5427 | – | 0.206 ± 0.007
395.52 K, 5000 kPa, x2 = 0.7906 | – | 0.183 ± 0.006
395.52 K, 10000 kPa, x2 = 0.7906 | – | 0.195 ± 0.006
401.28 K, 4100 kPa, x2 = 0.7906 | 601.1 ± 0.7 | –
401.28 K, 6833 kPa, x2 = 0.7906 | 606.2 ± 0.7 | –
401.28 K, 9204 kPa, x2 = 0.7906 | 610.3 ± 0.7 | –
401.28 K, 10510 kPa, x2 = 0.7906 | 612.5 ± 0.7 | –
401.4 K, 4751 kPa, x2 = 0.2808 | 614.2 ± 0.8 | –
401.4 K, 7120 kPa, x2 = 0.2808 | 618 ± 0.8 | –
401.4 K, 9310 kPa, x2 = 0.2808 | 621.7 ± 0.8 | –
403.23 K, 5000 kPa, x2 = 0.5427 | – | 0.183 ± 0.006
403.23 K, 10000 kPa, x2 = 0.5427 | – | 0.193 ± 0.006
407.72 K, 5000 kPa, x2 = 0.7906 | – | 0.167 ± 0.006
407.72 K, 10000 kPa, x2 = 0.7906 | – | 0.18 ± 0.006
409.59 K, 3334 kPa, x2 = 0.5427 | 598 ± 0.7 | –
409.59 K, 7257 kPa, x2 = 0.5427 | 606.1 ± 0.7 | –
409.59 K, 9316 kPa, x2 = 0.5427 | 609.6 ± 0.7 | –
413.6 K, 5000 kPa, x2 = 0.2808 | – | 0.178 ± 0.006
413.6 K, 10000 kPa, x2 = 0.2808 | – | 0.191 ± 0.006
415.96 K, 5000 kPa, x2 = 0.5427 | – | 0.167 ± 0.006
415.96 K, 10000 kPa, x2 = 0.5427 | – | 0.177 ± 0.006
423.23 K, 3334 kPa, x2 = 0.7906 | 578.1 ± 0.7 | –
423.23 K, 7433 kPa, x2 = 0.7906 | 587.6 ± 0.7 | –
423.23 K, 9708 kPa, x2 = 0.7906 | 592.4 ± 0.7 | –
424.45 K, 5000 kPa, x2 = 0.7906 | – | 0.149 ± 0.005
424.45 K, 10000 kPa, x2 = 0.7906 | – | 0.16 ± 0.005
424.48 K, 4903 kPa, x2 = 0.5427 | 588.7 ± 0.7 | –
424.48 K, 7108 kPa, x2 = 0.5427 | 592.8 ± 0.7 | –
424.48 K, 9298 kPa, x2 = 0.5427 | 597.1 ± 0.7 | –
424.55 K, 5000 kPa, x2 = 0.5427 | – | 0.158 ± 0.005
424.55 K, 10000 kPa, x2 = 0.5427 | – | 0.167 ± 0.006
429.34 K, 3511 kPa, x2 = 0.2808 | 585.6 ± 0.7 | –
429.34 K, 8237 kPa, x2 = 0.2808 | 595.9 ± 0.7 | –
429.34 K, 9630 kPa, x2 = 0.2808 | 598.7 ± 0.7 | –
432.62 K, 5000 kPa, x2 = 0.2808 | – | 0.156 ± 0.005
432.62 K, 10000 kPa, x2 = 0.2808 | – | 0.168 ± 0.006
433.62 K, 5000 kPa, x2 = 0.5427 | – | 0.148 ± 0.005
433.62 K, 10000 kPa, x2 = 0.5427 | – | 0.158 ± 0.005
435.62 K, 5000 kPa, x2 = 0.7906 | – | 0.138 ± 0.005
435.62 K, 10000 kPa, x2 = 0.7906 | – | 0.149 ± 0.005
447.3 K, 4808 kPa, x2 = 0.5427 | 566 ± 0.7 | –
447.3 K, 6304 kPa, x2 = 0.5427 | 569.6 ± 0.7 | –
447.3 K, 9463 kPa, x2 = 0.5427 | 576.6 ± 0.7 | –
451.28 K, 3900 kPa, x2 = 0.2808 | 565.6 ± 0.7 | –
451.28 K, 5302 kPa, x2 = 0.2808 | 569 ± 0.7 | –
451.28 K, 8131 kPa, x2 = 0.2808 | 576 ± 0.7 | –
451.28 K, 9621 kPa, x2 = 0.2808 | 579.7 ± 0.7 | –
452.73 K, 5000 kPa, x2 = 0.5427 | – | 0.129 ± 0.004
452.73 K, 10000 kPa, x2 = 0.5427 | – | 0.14 ± 0.005
455.3 K, 5000 kPa, x2 = 0.7906 | – | 0.12 ± 0.004
455.3 K, 10000 kPa, x2 = 0.7906 | – | 0.132 ± 0.004
455.63 K, 5000 kPa, x2 = 0.2808 | – | 0.133 ± 0.005
455.63 K, 10000 kPa, x2 = 0.2808 | – | 0.145 ± 0.005
463.18 K, 5000 kPa, x2 = 0.5427 | – | 0.12 ± 0.004
463.18 K, 10000 kPa, x2 = 0.5427 | – | 0.131 ± 0.004
466.55 K, 4570 kPa, x2 = 0.7906 | 535.1 ± 0.7 | –
466.55 K, 7593 kPa, x2 = 0.7906 | 546.3 ± 0.7 | –
466.55 K, 9885 kPa, x2 = 0.7906 | 553.4 ± 0.7 | –
466.78 K, 3177 kPa, x2 = 0.5427 | 538.3 ± 0.7 | –
466.78 K, 8649 kPa, x2 = 0.5427 | 556.8 ± 0.7 | –
466.78 K, 9963 kPa, x2 = 0.5427 | 560.6 ± 0.7 | –
472.52 K, 5000 kPa, x2 = 0.7906 | – | 0.107 ± 0.004
472.52 K, 10000 kPa, x2 = 0.7906 | – | 0.118 ± 0.004
473.1 K, 5000 kPa, x2 = 0.5427 | – | 0.112 ± 0.004
473.1 K, 10000 kPa, x2 = 0.5427 | – | 0.123 ± 0.004
473.46 K, 5000 kPa, x2 = 0.2808 | – | 0.118 ± 0.004
473.46 K, 10000 kPa, x2 = 0.2808 | – | 0.13 ± 0.004
475.85 K, 4354 kPa, x2 = 0.2808 | 539.5 ± 0.7 | –
475.85 K, 8492 kPa, x2 = 0.2808 | 553.8 ± 0.7 | –
475.85 K, 10120 kPa, x2 = 0.2808 | 558.1 ± 0.7 | –
483.92 K, 4703 kPa, x2 = 0.5427 | 524.2 ± 0.6 | –
483.92 K, 7131 kPa, x2 = 0.5427 | 533.5 ± 0.7 | –
483.92 K, 9423 kPa, x2 = 0.5427 | 541.6 ± 0.7 | –
494.74 K, 4250 kPa, x2 = 0.2808 | 515.8 ± 0.6 | –
494.74 K, 6032 kPa, x2 = 0.2808 | 524.3 ± 0.6 | –
494.74 K, 8734 kPa, x2 = 0.2808 | 535.5 ± 0.7 | –
494.74 K, 9220 kPa, x2 = 0.2808 | 537.5 ± 0.7 | –
505.34 K, 5217 kPa, x2 = 0.2808 | 507.7 ± 0.6 | –
505.34 K, 8904 kPa, x2 = 0.2808 | 525.4 ± 0.6 | –
505.34 K, 9807 kPa, x2 = 0.2808 | 528.4 ± 0.6 | –
506 K, 5099 kPa, x2 = 0.7906 | 487.7 ± 0.6 | –
506 K, 6982 kPa, x2 = 0.7906 | 499.4 ± 0.6 | –
506 K, 8492 kPa, x2 = 0.7906 | 507.2 ± 0.6 | –
506 K, 9669 kPa, x2 = 0.7906 | 512.6 ± 0.6 | –
518.04 K, 4982 kPa, x2 = 0.5427 | 480.1 ± 0.6 | –
518.04 K, 7512 kPa, x2 = 0.5427 | 496.2 ± 0.6 | –
518.04 K, 8983 kPa, x2 = 0.5427 | 504.3 ± 0.6 | –
525.5 K, 4771 kPa, x2 = 0.2808 | 475.8 ± 0.6 | –
525.5 K, 5323 kPa, x2 = 0.2808 | 480.4 ± 0.6 | –
525.5 K, 7331 kPa, x2 = 0.2808 | 494.9 ± 0.6 | –
525.5 K, 9533 kPa, x2 = 0.2808 | 506.5 ± 0.6 | –
536.57 K, 5021 kPa, x2 = 0.5427 | 449.5 ± 0.6 | –
536.57 K, 6931 kPa, x2 = 0.5427 | 468.1 ± 0.6 | –
536.57 K, 9621 kPa, x2 = 0.5427 | 486.1 ± 0.6 | –
549.34 K, 5394 kPa, x2 = 0.5427 | 431.7 ± 0.5 | –
549.34 K, 6766 kPa, x2 = 0.5427 | 449.2 ± 0.6 | –
549.34 K, 8689 kPa, x2 = 0.5427 | 464.6 ± 0.6 | –
549.34 K, 9708 kPa, x2 = 0.5427 | 471.9 ± 0.6 | –
555.9 K, 4982 kPa, x2 = 0.7906 | 394.1 ± 0.5 | –
555.9 K, 6198 kPa, x2 = 0.7906 | 416.1 ± 0.5 | –
555.9 K, 8649 kPa, x2 = 0.7906 | 445.5 ± 0.6 | –
555.9 K, 10240 kPa, x2 = 0.7906 | 458.1 ± 0.6 | –
557.23 K, 5296 kPa, x2 = 0.2808 | 430.4 ± 0.5 | –
557.23 K, 8238 kPa, x2 = 0.2808 | 461.5 ± 0.6 | –
557.23 K, 9885 kPa, x2 = 0.2808 | 473.3 ± 0.6 | –
557.23 K, 10790 kPa, x2 = 0.2808 | 479 ± 0.6 | –
